Data set [1] has as its system caspase-3/-7-like activities in brain slices. Description: TPFM of caspase-3 activation in brain slices of ethanol-intoxicated mouse. To be noted: 200-μm-thick brain sections of ethanol-intoxicated 7-day-old C57BL/6 mice, probe 120 μM, 3 h, 37 °C, Z-axis scanning TPFM. On the procedure: Figure 4 Imaging endogenous caspase activities in deep tissues. (a) TPFM of caspase-3 activation in brain slices of ethanol-intoxicated 7-day-old C57BL/6 mouse using C3RA (120 μM, 3 h). Top: 3D images of the mouse brain slice taken along the Z-axis from 0 to 160 μm at 10x magnification. Bottom: images taken at a depth of 120 μm at 40x magnification. […]: control slices (saline-treated); panels 2/6/4/8: treated with caspase-3/7 inhibitor I (200 μM, 3 h). Scale bar = 50 μm. (b) RFU readings extracted from (a) (FTPFM, blue bars) versus those from in vitro enzymatic assays using lysates from the same brain slices (RFU, orange bars). The signal from saline controls was set as “0” and that from ethanol-treated samples was set as “1” in RFU quantification. Due to the base-level active caspase-3 in the saline controls, negative readings were shown with inhibitor-treated samples. (c) WB analysis of caspase-3/-1/-8 activation in lysates of the same mouse brain slices shown in (a). (d) Normalized RFU readings from in vitro enzymatic assays using brain lysates (300 μg) of saline/ethanol treated mice after incubation with C1RB/C3RA/C8RA (6 μM) for 1 h at 37 °C.
All two-photon images were taken on a Leica TCS SP5X Confocal Microscope System. […]

The subject of data set [2] is NIH/3T3, BV2 and HeLa cells. Description: XTT cytotoxicity assay. Format: cell-based, mouse, human. The conditions noted are these: XTT assay, 12, 30, 60, 120 μM, 24 h. How it is done:
Supplementary Figure 4. Cytotoxicity of two-photon enzymatic probes (12, 30, 60, 120 μM) in mammalian cells (NIH/3T3, BV2 and HeLa) after incubation for 24 h, as determined by XTT assay. […]
Detection of caspase activities in mammalian cells and tissues
Cell culture. The mouse embryonic fibroblast cell line (NIH/3T3), mouse microglial cell line (BV2) and human epithelial carcinoma cell line (HeLa) used in our experiments were cultured in Dulbecco’s Modified Eagle's Medium (DMEM) supplemented with 10% (for NIH/3T3 and HeLa) or 5% (for BV2) fetal bovine serum (FBS), 100.0 mg/L streptomycin and 100 IU/mL penicillin in a humidified atmosphere of 5% CO2 at 37 °C.
XTT assay. The cytotoxicity of our probes was determined by using the XTT colorimetric cell proliferation kit (Roche) following manufacturer’s guidelines. Briefly, NIH/3T3, BV2 and HeLa cells were seeded in 20~30% confluency (since they will reach >50% confluency within 24 h) into 96-well plates and incubated overnight before the addition of probes with concentrations of 12 μM, 30 μM, 60 μM and 120 μM, respectively. Probes were applied from DMSO stocks whereby DMSO never exceeded 1% in the final solution. The same volume of DMSO was used as a negative control; and the same volume of STS (200 nM) was used as a positive control. After a total treatment time of 24 h, proliferation was assayed using the XTT assay (Supplementary Fig. 4). […]
On the technique in general: Formazan colour is commonly taken as a measure of viable cells.

Molecule `CC(=O)N[C@@H](CC(=O)O)C(=O)N[C@@H](CCC(=O)O)C(=O)N[C@H](C(=O)N[C@@H](CC(=O)O)C(=O)Nc1ccc2cc(C(C)=O)ccc2c1)C(C)C` [C3RA, Ac-DEVD-AAN] registered a δΦ (two-photon action cross-section) of 2.9 GM. For the same molecule, the “tissue depth of detection of caspase-3/-7-like activities” value in data set [1] is at most 160 μm. Besides, in data set [2], the cytotoxicity entry is reported as “minimally cytotoxic”.
